{"source": "paper PMC9481570", "about": "“A small molecule antagonist of SMN disrupts the interaction between SMN and RNAP II” (Nature Communications, 2022)", "key": {"TDRD3": {"target": "TDRD3 (Homo sapiens, UniProt Q9H7E2)", "sequence (Q9H7E2 554-611)": "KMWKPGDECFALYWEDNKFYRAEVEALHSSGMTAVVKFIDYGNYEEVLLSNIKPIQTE", "test": "ITC binding to TDRD3", "set-up": "TDRD3 (aa 554–611); His (N, cleaved yes); made in house; host or cells: E. coli BL21 (DE3) Codon plus RIL", "settings": "Supplementary Figs. 2 and 11b (VP-ITC); read-out: Kd, ITC binding curve, TDRD3", "excerpt": "(§1) The coding DNA fragments of following Tudor domains were cloned into pET28-MHL vector: SMN (aa 82–147), UHRF1 (aa 126–285), SMNDC1 (aa 53–130), TDRD3 (aa 554–611), SND1 (aa 650–910), TDRD2 (aa 327–420), FXR1 (aa 2–132), PHF1 (aa 28–87), SGF29 (aa 115–293), JMJD2A (aa 897–1101), 53BP1 (aa 1483–1606), SETDB1 (aa 190–410), LBR (aa 1–67), ZGPAT (aa 120–271). The coding regions of chromodomain of CBX7 (aa 8–62), PWWP domain of DNMT3A (aa 275–417), WD40 repeats of WDR5 (aa 24–334) and CW domain of ZCWPW2 (aa 21–78) were also subcloned into pET28-MHL vector to generate N-terminally His-tagged fusion protein. The MBT repeats of L3MBTL1 (aa 200–522) and L3MBTL2 (aa 170–625) were subcloned into pET28GST-LIC vector to generate N-terminally GST-His-tagged fusion protein. All the plasmids were generated by ligase independent cloning (Vazyme Biotech, C112 or ABclonal Technology, RK21020). […] The molecular weight of all protein samples was measured by mass spectrometry.\n(§2) For the ITC measurement, the concentrated proteins were diluted into 20 mM Tris-HCl, pH 7.5, 150 mM NaCl (ITC buffer); the lyophilized compounds were dissolved in the same buffer, and the pH value was adjusted by adding 2 M NaOH or 2 M HCl. […] Compound concentrations were calculated from the mass and the volume of the solvent. […]"}, "SMN_N132A": {"target": "T1, SMN_N132A (Homo sapiens, UniProt Q16637, N132A)", "T1 construct": "cloned into pET28-MHL vector: SMN (aa 82–147); His (N, cleaved yes); made in house; host or cells: E. coli BL21 (DE3) Codon plus RIL", "T1 sequence (Q16637 82-147 N132A)": "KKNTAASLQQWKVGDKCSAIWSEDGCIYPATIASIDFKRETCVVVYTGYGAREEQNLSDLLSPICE", "test": "ITC binding to SMN Tudor mutant N132A", "settings": "Fig. 3d", "excerpt": "as §1, §2"}, "SND1_F740W": {"target": "T2, SND1_F740W (Homo sapiens, UniProt Q7KZF4, F740W)", "T2 construct": "SND1 (aa 650–910); His (N, cleaved yes); made in house; host or cells: E. coli BL21 (DE3) Codon plus RIL", "T2 sequence (Q7KZF4 650-910 F740W)": "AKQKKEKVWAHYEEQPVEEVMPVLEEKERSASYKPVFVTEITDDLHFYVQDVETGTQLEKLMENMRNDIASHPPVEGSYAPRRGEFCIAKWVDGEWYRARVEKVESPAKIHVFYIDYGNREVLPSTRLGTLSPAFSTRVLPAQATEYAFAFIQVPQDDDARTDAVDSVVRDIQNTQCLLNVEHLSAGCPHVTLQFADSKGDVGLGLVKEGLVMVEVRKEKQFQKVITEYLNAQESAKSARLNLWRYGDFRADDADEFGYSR", "test": "ITC binding to SND1 mutant F740W", "settings": "Supplementary Fig. 11c, iTC-200; read-out: Kd, ITC binding curve, SND1_F740W", "excerpt": "as §1, §2"}, "[1]": {"system": "UHRF1_TTD aromatic cage residues mutated to alanine", "test": "ITC binding to UHRF1 TTD aromatic cage mutants", "settings": "Supplementary Fig. 9e", "excerpt": "as §1, §2"}, "SMN_Y130A": {"target": "T3, SMN_Y130A (Homo sapiens, UniProt Q16637, Y130A)", "T3 construct": "cloned into pET28-MHL vector: SMN (aa 82–147); His (N, cleaved yes); made in house; host or cells: E. coli BL21 (DE3) Codon plus RIL", "T3 sequence (Q16637 82-147 Y130A)": "as the sequence (Q16637 82-147 N132A) above, with Y49A, A51N counted along it", "test": "ITC binding to SMN Tudor mutant Y130A", "settings": "Fig. 3d", "excerpt": "as §1, §2"}, "SMN_Y127A": {"target": "T4, SMN_Y127A (Homo sapiens, UniProt Q16637, Y127A)", "T4 construct": "cloned into pET28-MHL vector: SMN (aa 82–147); His (N, cleaved yes); made in house; host or cells: E. coli BL21 (DE3) Codon plus RIL", "T4 sequence (Q16637 82-147 Y127A)": "as the sequence (Q16637 82-147 N132A) above, with Y46A, A51N counted along it", "test": "ITC binding to SMN Tudor mutant Y127A", "settings": "Fig. 3d", "excerpt": "as §1, §2"}, "L3MBTL2 (MBT)": {"target": "T5, L3MBTL2 (MBT) (Homo sapiens, UniProt Q969R5)", "T5 construct": "L3MBTL2 (aa 170–625); GST-His (N, cleaved yes); made in house; host or cells: E. coli BL21 (DE3) Codon plus RIL", "T5 sequence (Q969R5 170-625)": "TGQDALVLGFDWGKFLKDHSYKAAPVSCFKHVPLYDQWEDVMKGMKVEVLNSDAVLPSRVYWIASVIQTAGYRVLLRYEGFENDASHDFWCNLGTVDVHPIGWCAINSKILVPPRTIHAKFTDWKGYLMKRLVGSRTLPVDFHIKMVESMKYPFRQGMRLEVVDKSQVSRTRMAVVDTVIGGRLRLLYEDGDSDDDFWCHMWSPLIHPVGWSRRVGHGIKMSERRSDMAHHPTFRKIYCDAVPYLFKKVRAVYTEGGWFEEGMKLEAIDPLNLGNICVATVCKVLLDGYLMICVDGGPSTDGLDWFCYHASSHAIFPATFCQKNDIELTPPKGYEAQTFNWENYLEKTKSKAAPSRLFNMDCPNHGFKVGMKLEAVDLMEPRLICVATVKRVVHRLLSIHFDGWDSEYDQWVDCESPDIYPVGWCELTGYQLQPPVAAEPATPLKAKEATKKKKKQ", "test": "ITC binding to MBT repeats of L3MBTL2", "settings": "Fig. 1c", "excerpt": "as §1, §2"}, "CBX7 (CD)": {"target": "T6, CBX7 (CD) (Homo sapiens, UniProt O95931)", "T6 construct": "CBX7 (aa 8–62); His (N, cleaved yes); made in house; host or cells: E. coli BL21 (DE3) Codon plus RIL", "T6 sequence (O95931 8-62)": "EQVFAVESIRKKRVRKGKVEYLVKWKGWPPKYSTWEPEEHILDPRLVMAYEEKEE", "test": "ITC binding to chromodomain of CBX7", "settings": "Fig. 1c", "excerpt": "as §1, §2"}, "DNMT3A (PWWP)": {"target": "T7, DNMT3A (PWWP) (Homo sapiens, UniProt Q9Y6K1)", "T7 construct": "DNMT3A (aa 275–417); His (N, cleaved yes); made in house; host or cells: E. coli BL21 (DE3) Codon plus RIL", "T7 sequence (Q9Y6K1 275-417)": "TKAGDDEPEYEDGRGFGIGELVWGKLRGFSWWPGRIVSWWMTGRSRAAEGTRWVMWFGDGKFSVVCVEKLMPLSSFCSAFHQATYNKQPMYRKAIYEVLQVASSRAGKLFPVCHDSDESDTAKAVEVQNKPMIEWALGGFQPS", "test": "ITC binding to PWWP domain of DNMT3A", "settings": "Fig. 1c", "excerpt": "as §1, §2"}, "SMN_W102Y": {"target": "T8, SMN_W102Y (Homo sapiens, UniProt Q16637, W102Y)", "T8 construct": "SMN (aa 82–147); His (N, cleaved yes); made in house; host or cells: E. coli BL21 (DE3) Codon plus RIL", "T8 sequence (Q16637 82-147 W102Y)": "as the sequence (Q16637 82-147 N132A) above, with W21Y, A51N counted along it", "test": "ITC binding to SMN Tudor mutant W102Y", "settings": "Fig. 3d", "excerpt": "as §1, §2"}}, "data": [{"smiles": "Cn1c2c(c(=N)c3c1CCC3)CCC2", "note": "[Compound 1, 4-methyl-2,3,4,5,6,7-hexahydrodicyclopenta[b,e]pyridin-8(1H)-imine]", "values": [{"measurement": "Kd", "setting": "TDRD3", "value": "11 ± 1", "unit": "µM"}, {"measurement": "Kd", "setting": "SMN_N132A", "value": "70 ± 6", "unit": "µM"}, {"measurement": "Kd", "setting": "SND1_F740W", "value": "38 ± 8", "unit": "µM"}, {"measurement": "binding affinity to UHRF1_TTD aromatic cage alanine mutants", "setting": "[1]", "value": "not affected significantly"}, {"measurement": "Kd", "setting": "SMN_Y130A", "value": "> 244", "unit": "µM"}, {"measurement": "Kd", "setting": "SMN_Y127A", "value": "> 100", "unit": "µM"}, {"measurement": "Kd", "setting": "L3MBTL2 (MBT)", "value": "> 244", "unit": "µM"}, {"measurement": "Kd", "setting": "CBX7 (CD)", "value": "> 244", "unit": "µM"}, {"measurement": "Kd", "setting": "DNMT3A (PWWP)", "value": "> 244", "unit": "µM"}, {"measurement": "Kd", "setting": "SMN_W102Y", "value": "8.3 ± 1.1", "unit": "µM"}]}]}
